The record followed here is patent publication US20150352177A1, “Method Of Treating An Ocular Disease And Compositions Effective For Treating An Ocular Disease” (Howard University, priority 2012, published 2015).

This assay relates to severe endophthalmitis. The assay is described as follows: Combination therapy treatment of a subject with severe endophthalmitis (single case). Type of assay: in vivo, human. The following applies: topical Ceftazidime, Vancomycin and Prednisolone eye drops every two hours, without efflux transporter inhibitor, over two days, vision dropped to no light perception. The protocol: A uniocular subject was diagnosed with severe endophthalmitis in their only functioning eye. […] The subject was treated with an aggressive treatment regimen of topical antibiotics Ceftazidime eye drops, Vancomycin eye drops and steroid Prednisolone eye drops every two hours.
Cyclosporin A (sold as […]® from Allergan, Inc.) was added to the treatment regimen and was administered prior to administering the antibiotic and steroid eye drops.
The Ceftriaxone was added to the regimen to increase the aggressiveness of the therapy with the goal of preventing or eliminating any traces of infection in the retina, which can result in irreversible blindness.

With `CC(C)(O/N=C(\C(=O)N[C@@H]1C(=O)N2C(C(=O)[O-])=C(C[n+]3ccccc3)CS[C@H]12)c1csc(N)n1)C(=O)O` [Ceftazidime], the “improvement under initial treatment regimen” value was “no improvement”.

Take `C[C@]12C=CC(=O)C=C1CC[C@@H]1[C@@H]2[C@@H](O)C[C@@]2(C)[C@H]1CC[C@]2(O)C(=O)CO` [Prednisolone]: the “improvement under initial treatment regimen” value is “no improvement”. Under `CN[C@H](CC(C)C)C(=O)N[C@H]1C(=O)N[C@@H](CC(N)=O)C(=O)N[C@H]2C(=O)N[C@H]3C(=O)N[C@H](C(=O)N[C@H](C(=O)O)c4cc(O)cc(O)c4-c4cc3ccc4O)[C@H](O)c3ccc(c(Cl)c3)Oc3cc2cc(c3O[C@@H]2O[C@H](CO)[C@@H](O)[C@H](O)[C@H]2O[C@H]2C[C@](C)(N)[C@H](O)[C@H](C)O2)Oc2ccc(cc2Cl)[C@H]1O` [Vancomycin] stands “no improvement”.
